Where a name gives a salt, the structure may show the parent alone.
Experiments:
[1] = target: T1, human D4 dopamine receptor (DA D4) (Homo sapiens, UniProt P21917); assay: inhibition of radioligand binding to the human D4 dopamine receptor
T1 sequence (P21917 1-419): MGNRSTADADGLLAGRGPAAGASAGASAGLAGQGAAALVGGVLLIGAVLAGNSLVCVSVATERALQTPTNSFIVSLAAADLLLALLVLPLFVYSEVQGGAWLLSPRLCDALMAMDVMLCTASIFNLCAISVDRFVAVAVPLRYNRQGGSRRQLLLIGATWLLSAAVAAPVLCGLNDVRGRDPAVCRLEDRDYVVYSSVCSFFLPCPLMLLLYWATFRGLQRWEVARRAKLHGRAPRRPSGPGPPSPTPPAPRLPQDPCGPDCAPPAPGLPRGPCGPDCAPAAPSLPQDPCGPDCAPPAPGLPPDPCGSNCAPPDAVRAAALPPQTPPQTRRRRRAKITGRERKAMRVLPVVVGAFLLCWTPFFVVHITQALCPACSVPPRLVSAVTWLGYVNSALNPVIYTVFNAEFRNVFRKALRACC
Method: Compounds were tested for their ability to bind to dopamine receptors as measured by their inhibition of [^3 H]spiperone binding to the human D2, D3 receptors in a receptor assay described by MacKenzie R. G., VanLeeuwen D., Pugsley T. A., et al., "Characterization of the human dopamine D3 receptor expressed in transfected cell lines." Eur. J. Pharmacol.-Mol. Pharmacol., 1994;266:79-85; for the human D4 dopamine receptor in a receptor assay by Pugsley T. A., Davis M. D., Akunne H. C., et al., "CI-1007, a dopamine partial agonist and potential antipsychotic agent. I. Neurochemical Effects." J. Pharmacol. Exp. Ther., 1995;274:898-911; and for ability to block the action of an agonist in a [^3 H]thymidine incorporation assay described by Lajiness N. E., Chio C. L., Huff R. M., "D2 dopamine receptor stimulation of mitogenesis in transfected Chinese hamster ovary cells: relationship to dopamine stimulation of tyrosine phosphorylations." J. Pharmacol. Exp. Ther., 1993;267:1573-81. This test determines the agonist/antagonist character of a compound by measuring [^3 H]thymidine update in Chinese hamster ovary (CHO) pro-5 cells expressing the DA D4 receptor. Agonists, such as quinpirole, promote cell growth and subsequent [^3 H]thymidine incorporation, while antagonists block the action of agonists. […] The above test methods are incorporated herein by reference.

[2] = target: human D3 receptor (DA D3) (Homo sapiens, UniProt P35462); assay: inhibition of [^3 H]spiperone binding to the human D3 receptor; details: human D3, [^3 H]spiperone
[3] = target: human D2 receptor (DA D2) (Homo sapiens, UniProt P14416); assay: inhibition of [^3 H]spiperone binding to the human D2 receptor; details: human D2, [^3 H]spiperone
DA D4 receptor = details: D4 versus D2; Van Tol et al., Nature 1991; cited from earlier work
[4] = clozapine, background section; cited from earlier work

human D3 receptor (DA D3), sequence (P35462 whole entry): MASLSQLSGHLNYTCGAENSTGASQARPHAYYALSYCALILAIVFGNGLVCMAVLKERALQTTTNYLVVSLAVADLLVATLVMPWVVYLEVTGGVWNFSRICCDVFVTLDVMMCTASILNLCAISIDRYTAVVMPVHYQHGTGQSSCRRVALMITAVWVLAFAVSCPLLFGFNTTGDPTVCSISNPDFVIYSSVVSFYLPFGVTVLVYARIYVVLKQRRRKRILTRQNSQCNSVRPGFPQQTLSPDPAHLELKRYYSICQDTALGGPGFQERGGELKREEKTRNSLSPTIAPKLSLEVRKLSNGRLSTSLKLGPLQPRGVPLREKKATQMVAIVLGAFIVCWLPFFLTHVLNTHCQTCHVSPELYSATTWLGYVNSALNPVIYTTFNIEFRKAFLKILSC
human D2 receptor (DA D2), sequence (P14416 whole entry): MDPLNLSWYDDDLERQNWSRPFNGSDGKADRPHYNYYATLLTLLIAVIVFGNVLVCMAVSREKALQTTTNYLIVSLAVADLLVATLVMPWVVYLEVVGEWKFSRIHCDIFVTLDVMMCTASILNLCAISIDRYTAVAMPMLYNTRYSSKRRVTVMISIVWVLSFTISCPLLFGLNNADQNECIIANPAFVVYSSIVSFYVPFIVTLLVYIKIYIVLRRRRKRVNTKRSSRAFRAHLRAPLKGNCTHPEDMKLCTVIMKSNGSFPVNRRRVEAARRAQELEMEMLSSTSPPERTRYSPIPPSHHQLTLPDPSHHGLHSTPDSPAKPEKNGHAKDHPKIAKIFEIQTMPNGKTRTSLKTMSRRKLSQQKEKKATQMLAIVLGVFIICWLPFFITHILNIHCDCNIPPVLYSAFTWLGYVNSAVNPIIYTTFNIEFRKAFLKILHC

Compound	Ki [1] [nM]	Ki [2] [nM]	Ki [3] [nM]	affinity for the DA D4 receptor relative to D2 (DA D4 receptor)	extrapyramidal side effects and tardive dyskinesia [4]
COc1cc(CN2CCN(c3cccc(C)c3)CC2)cc(OC)c1OC [Example 7, 1-m-Tolyl-4-(3,4,5-trimethoxybenzyl)piperazine, monohydrochloride]	8.6	2770	1460	–	–
COc1cccc(CN2CCN(c3cccc(C)c3Cl)CC2)c1OC [Example 26, 1-(2-Chloro-3-methylphenyl)-4-(2,3-dimethoxybenzyl)-piperazine, monohydrochloride]	12.7	2650	2900	–	–
COc1ccc(OC)c(CN2CCN(c3cccc(C)c3Cl)CC2)c1 [Example 28, 1-(2-Chloro-3-methylphenyl)-4-(2,5-dimethoxybenzyl)-piperazine, monohydrochloride]	11.3	730	2080	–	–
CN1CCN(C2=Nc3cc(Cl)ccc3Nc3ccccc32)CC1 [clozapine]	–	–	–	tenfold higher affinity	lack of extrapyramidal side effects and tardive dyskinesia

More lines, main results first:

Ki [1] [nM]	Ki [2] [nM]	Ki [3] [nM]	Compound	affinity for the DA D4 receptor relative to D2 (DA D4 receptor)	extrapyramidal side effects and tardive dyskinesia [4]
7.5	6820	1410	COc1cc(CN2CCN(c3ccc(C)cc3)CC2)cc(OC)c1OC [Example 8, 1-p-Tolyl-4-(3,4,5-trimethoxybenzyl)piperazine, monohydrochloride]	–	–
6.1	2120	1050	COc1cc(CN2CCN(c3cccc(Cl)c3C)CC2)cc(OC)c1OC [Example 19, 1-(3-Chloro-2-methylphenyl)-4-(3,4,5-trimethoxybenzyl)-piperazine, monohydrochloride]	–	–
4.5	2030	3290	COc1cc(CN2CCN(c3ccc(C)c(Cl)c3)CC2)cc(OC)c1OC [Example 20, 1-(3-Chloro-4-methylphenyl)-4-(3,4,5-trimethoxybenzyl)-piperazine, monohydrochloride]	–	–
6.5	3510	1560	COc1cc(CN2CCN(c3cc(Cl)ccc3C)CC2)cc(OC)c1OC [Example 21, 1-(5-Chloro-2-methylphenyl)-4-(3,4,5-trimethoxybenzyl)-piperazine, monohydrochloride]	–	–
4.4	409	762	COc1ccc(CN2CCN(c3cccc(C)c3Cl)CC2)c(OC)c1 [Example 27, 1-(2-Chloro-3-methylphenyl)-4-(2,4-dimethoxybenzyl)-piperazine, monohydrochloride]	–	–
5	1210	2340	COc1ccc(CN2CCN(c3cccc(C)c3Cl)CC2)cc1OC [Example 29, 1-(2-Chloro-3-methylphenyl)-4-(3,4-dimethoxybenzyl)-piperazine, monohydrochloride]	–	–

Source: US5965560A, “Substituted piperazines and piperidines as central nervous system agents” (priority 1997, dated 1999)
